Source: patent US20060121483A1, “Methods for detecting teneurin signalling and related screening methods” (priority 2002, published 2006)
Where a SMILES comes first, the peptide text is derived from it. [ ]: non-standard residue; d: D form. Nle = CCCC[C@H](N)C(=O)O

Assays:
Format in all cases: cell-based
[1] = test system: transcriptional activity of Zic; assay: Zic / ApoE-luciferase reporter assay in EcR 293 stable transfectants
BDAD-CTEY = assay: BDAD-teneurin-2 fusion GAL4 luciferase reporter (cleavage) assay; conditions: addition of protease inhibitors; ALLN 25 μg/ml, lactacystin 10 μM
Protocol: (§1) HT1 080 human fibrosarcoma (ATCC CRL-12012) and COS-7 cells (SV40-transformed kidney fibroblasts from the African green monkey, ATCC CRL-1651) were routinely maintained In DMEM medium (Dulbecco's Modified Eagles Medium) supplemented with 10% FCS (fetal calf serum). For transient transfections the cells were seeded in 6-well plates or 4-well staining dishes (Greiner). Twelve hours later they were transfected with the expression vectors containing the constructs (1 μg of each vector) described above and in Example 2 (Zic), Example 4 and Example 5 by using FUGENE-6 (3 μl, 6 μl or 9 μl for one, two to three, or four different plasmids, respectively). […]
The cells were lysed by adding reporter lysis buffer (Promega). Serial dilutions of the lysed cell suspension were then pipetted into Microlite™ luciferase plates (Dynex Technologies) and the luciferase activity was measured in a Microlumat (LB96P, EG+G Berthold) by automatic injection of luciferin substrate solution (2 mM luciferin, 100 mM ATP in 250 mM glycin pH 7.8, 150 mM MgSO4). […] To stop the enzymatic reaction, three times the sample volume of 1 M Na2CO3 was added and the OD was measured at 405 nm in a microplate reader (BioRad). […]

teneurin-2 CTE = assay: Western blot of teneurin-2 CTE and its cleavage products; conditions: two cleavage products, one the size of the cytoplasmic domain alone
Protocol: as §1, with “respectively). The cells were treated with the following substances at least five hours after transfection: ALLN (25 μg/ml; N-acetyl-leu-leu-norleu-AL; Sigma); tunicamycin (2 μg/ml; Sigma) or lactacystin (10 μM; e.g. Sigma) for four or eight hours prior to harvesting.” for “respectively).”
(§2) The gels were transferred to PVDF (polyvinylidene fluoride) membranes. The proteins were detected by anti-GAL4 antibody (BDAD and BDAD-C) or by anti-teneurin-2 serum (BDAD-CTE and BDAD-CTEY), horseradish peroxidase coupled secondary antibodies and ECL SuperSignal® (Pierce).

teneurin-2 C = assay: Teneurin-2 C expression level after co-transfection with Zic; conditions: HT1080 cells, transient co-transfection of teneurin-2 C and Zic; lactacystin 10 μM
Protocol: as §1, with “respectively). The cells were treated with the following substances at least five hours after transfection: ALLN (25 μg/ml; N-acetyl-leu-leu-norleu-AL; Sigma); tunicamycin (2 μg/ml; Sigma) or lactacystin (10 μM; e.g. Sigma) for four or eight hours prior to harvesting.” for “respectively).”
as §2
In this Example, it was determined whether the zinc finger transcription factor Zic, a vertebrate homologue of opa would influence, or be influenced by, the cytoplasmic domain of teneurin-2. […]

K3 cells = assay: Proliferation assay, K3 cells; conditions: 5 day period, crystal violet, ponasterone induces the cytoplasmic domain of teneurin-2
Protocol: (§3) The effect of the expression of the cytoplasmic domain of teneurin-2 on cell proliferation was tested. K3 cells (EcR-293 cells (Invitrogen) containing the stably integrated plasmid pVgRXR (Invitrogen) and the plnd teneurin-2 plasmid encoding the cytoplasmic domain, described in Example 7) were cultured in the presence or absence of ponasterone, which induces expression of the cytoplasmic domain of teneurin-2. Typically, over a 5 day period, parallel cultures were fixed with 4% formaldehyde every day and cell numbers were determined by staining the cells with crystal violet (0.1% in H20). In the presence of ponasterone and thus in the presence of the cytoplasmic domain of teneurin, the K3 cells were retarded in their growth rate to about 50% of the untreated cells. Proliferation of EcR-293 cells without transfected cytoplasmic domain of teneurin-2 was not affected by the addition of ponasterone, proving that the growth retardation was specifically dependent on the presence of the cytoplasmic domain of teneurin-2.

EcR-293 cells = assay: Proliferation assay, EcR-293 cells; conditions: EcR-293 cells without transfected cytoplasmic domain of teneurin-2
Protocol: as §3

Compound | stabilization of teneurin-2 C ([1]; ALLN 25 μg/ml) | inhibitory effect of teneurin-2 C on the transcriptional activity of Zic (ApoE-luciferase reporter) ([1]; EcR 293 cells, teneurin-2 C induced by ponasterone, in the presence of ALLN) | induction of luciferase activity following transfection of BDAD-CTEY (BDAD-CTEY) | stabilisation of cleavage products of CTE (western blot) (teneurin-2 CTE) | Zic induced downregulation of teneurin-2 C (teneurin-2 C) | expression level of the reporter gene (ApoE-luciferase) after induction of teneurin-2 C ([1]; EcR 293 stable transfectants transiently transfected with Zic, ponasterone induces teneurin-2 C) | growth rate relative to untreated cells (K3 cells) | proliferation (EcR-293 cells)
CCCC[C@@H](C=O)NC(=O)[C@H](CC(C)C)NC(=O)[C@H](CC(C)C)NC(C)=O [ALLN, N-acetyl-leu-leu-norleu-AL] (Ac-Leu-Leu-[Nle]-aldehyde) | stabilize teneurin-2 C | more pronounced | markedly upregulated | stabilisation of two particular cleavage products | – | – | – | –
CC(=O)N[C@@H](CSC(=O)[C@]1([C@@H](O)C(C)C)NC(=O)[C@H](C)[C@@H]1O)C(=O)O [lactacystin] | – | – | markedly upregulated | – | counteracted | – | – | –
CC(C)CC[C@@H](O)[C@](C)(O)[C@H]1CC[C@@]2(O)C3=CC(=O)[C@@H]4C[C@@H](O)[C@@H](O)C[C@]4(C)[C@H]3CC[C@]12C [ponasterone] | – | – | – | – | – | marked reduction | about 50% | not affected
